Measurements from US4395413A, “Oxime ethers and pharmaceutical compositions containing the same” (Egyt Gyogyszervegyeszeti Gyar, priority 1979, dated 1983).
Where two headings read alike, the source gives them in different places.

Tests used:
[1] = acute toxicity on white mice (strain CFLP); conditions: mouse, in vivo, 4 days observation
Procedure: The acut toxicity of the new compounds according to the invention was determined on white mice of both sexes weighing 18-24 g belonging to the strain CFLP. Administration was effected with an oral or intraperitoneal dosage of 20 ml/kg. After treatment the animals were kept under observation for 4 days.

[2] = analgesic effect on mice (method of Koster); format: in vivo; conditions: for ED50: Mus musculus, po; for Therapeutic index: p.o.
Procedure:  The analgesic effect was determined on mice by the method of Koster, R.
Anderson, M., De Beer, E. J., Fred.

ischiadic nerve of rats = assay: local anaesthetic effect on the ischiadic nerve of rats (method of Truant and d'Amato); format: in vivo; conditions: for Duration 0.25% / EC50: rats, ischiadic nerve; for Duration 0.25%: 0.25% concentration; for EC50: local anaesthesia; for Relative efficiency: referred to Lidocaine
Source text: The local anaesthetic effect was investigated on the ischiadic nerve of rats by means of the method of Truant and d'Amato /Truant, A. P. and Wiedling, S.: Acta Chirurg. Scand. 116, 351 /1958//. Lidocaine served as reference substance.
In Table III. below, the relative efficiency referred to Lidocaine and the duration of the effect on application of 0.25% concentrations of Lidocaine are given.

isoproterenol = isoproterenol antagonistic (beta-receptor blocking) effect; format: in vivo, cats
[3] = hypotensive effect on anaesthesized cats; format: in vivo; conditions: doses of 3 and 5 mg/kg
Procedure: (§1) The hypotensive effect of the new compounds was tested on anaesthesized cats. The compound of Example 7, administered in doses of 3 and 5 mg/kg, results in a prolonged decrease of blood pressure of 40 Hgmm. […] This compound, orally tested on waking rats of normal tension in a dosage of 100 mg/kg, results in a decrease of blood pressure of 13 Hgmm.

noradrenaline = noradrenaline antagonistic (alpha-receptor blocking) effect; format: in vivo, cats
nicotine-lethality = assay: inhibition of nicotine-lethality on mice (method of Stone); format: in vivo; conditions: for ED50: Mus musculus, po, read-out: ED50 /p.o./; for Therapeutic index: nicotine-lethality inhibition
Procedure: The inhibition of nicotine-lethality was determined on mice by the method of Stone /Stone, C. A. et al.: Arch. Intern.

orthostatic hypotension = assay: influence on the orthostatic hypotension; format: in vivo; conditions: qualitative
[4] = blood pressure of waking rats of normal tension, oral; format: in vivo; conditions: orally, 100 mg/kg
Procedure: as §1

carotid occlusion reflex = assay: effect on the carotid occlusion reflex; format: in vivo, cats; conditions: qualitative
Procedure: as §1

[5] = po, per os, read-out: LD50 per os.

Compound	LD50 at 96 h ([1]; ip, read-out: LD50 i.p.) [mg/kg]	LD50 at 96 h [1, 5] [mg/kg]	ED50 [2] [mg/kg]	Therapeutic index [2]	ED50 (nicotine-lethality; mice, p.o., nicotine-lethality) [mg/kg]	Therapeutic index (nicotine-lethality; mice, p.o.)	other results
CCCCC1CCCCC1=NOCCN(C)C (stereo not shown) [Example 1, 2-n-butyl-1-/2'-dimethylaminoethoxyimino/-cyclohexane]	135	580	320				
CCCCC1CCCCC1=NOCCCN(C)C (stereo not shown) [Example 3, 2-n-butyl-1-/3'-dimethylaminopropoxyimino/-cyclohexane]	100	430	45	9			
CCCCC1CCCCC1=NOCC(C)CN(C)C (stereo not shown) [Example 4, 2-n-butyl-1-/2'-methyl-3'-dimethylaminopropoxyimino/-cyclohexane]	110	400					Duration 0.25% (ischiadic nerve of rats): 31 min; EC50 (ischiadic nerve of rats): 0.15 % conc.; Relative efficiency (ischiadic nerve of rats): 1.13
CCCCC1CCCCC1=NOCCCN1CCN(Cc2ccccc2)CC1 (stereo not shown) [Example 5, 2-n-butyl-1-[3'-/4"-benzylpiperazinyl/-propoxyimino]-cyclohexane]	240	1300	250	5.2			
CCCC=C1CCCCC1=NOCCCN1CCN(C)CC1 [Example 7, 2-butylidene-1-[3'-/4"-methylpiperazinyl/-propoxyimino]-cyclohexane]	330	1600			155	10.0	ED50 (isoproterenol; Felis catus, iv, read-out: isoproterenol antagonistic i.v. ED50): 2.5 mg/kg; beta-receptor blocking effect (isoproterenol; qualitative): alpha- and beta-receptor blocking effect; prolonged decrease of blood pressure [3]: 40 Hgmm; ED50 (noradrenaline; Felis catus, iv, read-out: noradrenaline antagonistic i.v. ED50): 2.3 mg/kg; alpha-receptor blocking effect (noradrenaline; qualitative): alpha- and beta-receptor blocking effect; influence on the orthostatic hypotension (orthostatic hypotension): no influence on the orthostatic hypotension; decrease of blood pressure [4]: 13 Hgmm; effect on the carotid occlusion reflex (carotid occlusion reflex): decreases the effect on the carotid occlusion reflex
CCCC=C1CCCCC1=NOCCCN1CCN(Cc2ccccc2)CC1 [Example 8, 2-butylidene-[3'-/4"-benzylpiperazinyl/-propoxyimino]-cyclohexane]	230	1450	290	5			
CCCCC=C1CCCCC1=NOCCCN1CCN(C)CC1 [Example 9, 2-pentylidene-1-[3'-/4"-methylpiperazinyl/-propoxyimino]-cyclohexane]	200	3000	500	6	150	20.0	Duration 0.25% (ischiadic nerve of rats): 64 min; EC50 (ischiadic nerve of rats): 0.25 % conc.; Relative efficiency (ischiadic nerve of rats): 0.76
CCCCC=C1CCCCC1=NOCCCN1CCN(Cc2ccccc2)CC1 [Example 10, 2-pentylidene-1-[3'-/4"-benzylpiperazinyl/-propoxyimino]-cyclohexane]	160	1800	140	13.0			
C=CCC1CCCCC1=NOCCCN1CCN(C)CC1 (stereo not shown) [Example 14, 2-allyl-[3'-/4"-methylpiperazinyl/-propoxyimino]-cyclohexane]	310	1600			70	22.0	
CCCCCC=C1CCCCC1=NOCCCN1CCN(C)CC1 [Example 15, 2-hexylidene-1-[3'-/4"-methylpiperazinyl/propoxyimino]-cyclohexane]	200	3000			190	16.0	
CCCCCCCC=C1CCCCC1=NOCCCN1CCN(C)CC1 [Example 16, 2-octylidene-1-[3'-/4"-methylpiperazinyl/propoxyimino]-cyclohexane]	270	3000	200	15.0		17.6	ED50 (nicotine-lethality): 150 mg/kg
CCN(CC)CC(=O)Nc1c(C)cccc1C [Lidocaine, reference compound]							Duration 0.25% (ischiadic nerve of rats): 24 min; EC50 (ischiadic nerve of rats): 0.19 % conc.; Relative efficiency (ischiadic nerve of rats): 1.00
OC(CCN1CCCCC1)(c1ccccc1)C1CCCCC1 (stereo not shown) [Trihexyphenidyl, reference compound]					40	9.13	
